Consider two compounds from publication PMC3814616, “BRAF inhibitors suppress apoptosis through off-target inhibition of JNK signaling” (eLife, 2013).

Assay in all cases: Quantitative competitive binding assay (KINOMEscan)
What all share (details): for remaining binding at 0.05 µM: read-out: Percent control (50 nM); for remaining binding at 0.2 µM: read-out: Percent control (200 nM); for remaining binding at 1 µM: read-out: Percent control (1000 nM); for remaining binding at 10 µM: read-out: Percent control (10 μM)

One experiment has as its target T1, ASK2 (MAP3K6) (Homo sapiens, UniProt O95382).
T1 construct: purchased KINOMEscan (DiscoveRx), San Diego, CA
T1 sequence (O95382 1-1288): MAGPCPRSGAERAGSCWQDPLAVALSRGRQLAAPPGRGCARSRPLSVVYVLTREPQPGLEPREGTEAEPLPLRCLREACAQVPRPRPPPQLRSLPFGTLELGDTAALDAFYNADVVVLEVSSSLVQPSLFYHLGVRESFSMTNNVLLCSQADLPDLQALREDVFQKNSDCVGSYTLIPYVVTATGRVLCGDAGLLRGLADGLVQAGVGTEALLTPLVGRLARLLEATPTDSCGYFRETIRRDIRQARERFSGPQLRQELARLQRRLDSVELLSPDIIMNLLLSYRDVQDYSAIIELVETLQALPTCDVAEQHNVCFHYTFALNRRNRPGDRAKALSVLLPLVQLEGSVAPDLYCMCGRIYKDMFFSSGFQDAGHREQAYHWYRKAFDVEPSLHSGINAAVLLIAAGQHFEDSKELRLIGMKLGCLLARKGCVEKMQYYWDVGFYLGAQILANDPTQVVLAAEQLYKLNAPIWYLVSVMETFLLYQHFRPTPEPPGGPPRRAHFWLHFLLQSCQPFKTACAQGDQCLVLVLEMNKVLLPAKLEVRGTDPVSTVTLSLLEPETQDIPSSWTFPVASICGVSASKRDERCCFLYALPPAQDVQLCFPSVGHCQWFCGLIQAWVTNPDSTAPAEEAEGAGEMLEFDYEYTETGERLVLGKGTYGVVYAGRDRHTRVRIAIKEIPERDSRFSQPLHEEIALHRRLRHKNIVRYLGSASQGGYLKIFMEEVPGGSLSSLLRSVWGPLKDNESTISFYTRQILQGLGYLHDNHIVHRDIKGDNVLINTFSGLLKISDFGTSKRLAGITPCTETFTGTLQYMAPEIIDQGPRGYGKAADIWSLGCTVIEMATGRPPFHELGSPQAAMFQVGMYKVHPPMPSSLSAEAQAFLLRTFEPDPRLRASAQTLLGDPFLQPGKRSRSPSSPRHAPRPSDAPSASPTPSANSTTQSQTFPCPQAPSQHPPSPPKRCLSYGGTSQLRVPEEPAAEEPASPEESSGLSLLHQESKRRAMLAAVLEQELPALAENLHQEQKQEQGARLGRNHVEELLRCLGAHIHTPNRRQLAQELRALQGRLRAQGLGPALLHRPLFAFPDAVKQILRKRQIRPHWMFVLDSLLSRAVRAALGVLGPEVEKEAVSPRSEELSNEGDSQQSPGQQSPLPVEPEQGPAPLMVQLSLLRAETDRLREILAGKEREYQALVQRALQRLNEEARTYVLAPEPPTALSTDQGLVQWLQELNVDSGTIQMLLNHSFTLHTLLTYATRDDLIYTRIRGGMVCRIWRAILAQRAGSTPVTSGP

The next experiment has as its target T2, MAP3K2 (Homo sapiens, UniProt Q9Y2U5).
T2 construct: purchased KINOMEscan (DiscoveRx), San Diego, CA
T2 sequence (Q9Y2U5 1-619): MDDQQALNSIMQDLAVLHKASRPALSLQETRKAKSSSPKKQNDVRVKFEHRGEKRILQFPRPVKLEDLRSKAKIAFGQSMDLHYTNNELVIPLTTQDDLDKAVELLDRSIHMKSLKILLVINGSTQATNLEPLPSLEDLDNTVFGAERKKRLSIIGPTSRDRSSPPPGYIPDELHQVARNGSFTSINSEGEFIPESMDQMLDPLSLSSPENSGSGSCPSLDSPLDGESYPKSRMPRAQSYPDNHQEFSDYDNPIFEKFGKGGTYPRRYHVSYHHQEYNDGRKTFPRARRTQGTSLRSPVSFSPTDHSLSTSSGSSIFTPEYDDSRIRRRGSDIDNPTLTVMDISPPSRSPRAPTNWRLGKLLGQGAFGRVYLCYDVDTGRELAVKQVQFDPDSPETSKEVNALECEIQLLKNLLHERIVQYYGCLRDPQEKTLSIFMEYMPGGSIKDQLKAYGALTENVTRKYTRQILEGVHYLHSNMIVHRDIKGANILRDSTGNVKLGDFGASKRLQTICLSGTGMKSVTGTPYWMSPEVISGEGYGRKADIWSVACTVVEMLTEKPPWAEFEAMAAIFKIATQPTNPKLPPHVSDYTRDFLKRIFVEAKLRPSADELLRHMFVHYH

Another experiment has as its target T3, MAP4K3 (Homo sapiens, UniProt Q8IVH8).
T3 construct: purchased KINOMEscan (DiscoveRx), San Diego, CA
T3 sequence (Q8IVH8 1-894): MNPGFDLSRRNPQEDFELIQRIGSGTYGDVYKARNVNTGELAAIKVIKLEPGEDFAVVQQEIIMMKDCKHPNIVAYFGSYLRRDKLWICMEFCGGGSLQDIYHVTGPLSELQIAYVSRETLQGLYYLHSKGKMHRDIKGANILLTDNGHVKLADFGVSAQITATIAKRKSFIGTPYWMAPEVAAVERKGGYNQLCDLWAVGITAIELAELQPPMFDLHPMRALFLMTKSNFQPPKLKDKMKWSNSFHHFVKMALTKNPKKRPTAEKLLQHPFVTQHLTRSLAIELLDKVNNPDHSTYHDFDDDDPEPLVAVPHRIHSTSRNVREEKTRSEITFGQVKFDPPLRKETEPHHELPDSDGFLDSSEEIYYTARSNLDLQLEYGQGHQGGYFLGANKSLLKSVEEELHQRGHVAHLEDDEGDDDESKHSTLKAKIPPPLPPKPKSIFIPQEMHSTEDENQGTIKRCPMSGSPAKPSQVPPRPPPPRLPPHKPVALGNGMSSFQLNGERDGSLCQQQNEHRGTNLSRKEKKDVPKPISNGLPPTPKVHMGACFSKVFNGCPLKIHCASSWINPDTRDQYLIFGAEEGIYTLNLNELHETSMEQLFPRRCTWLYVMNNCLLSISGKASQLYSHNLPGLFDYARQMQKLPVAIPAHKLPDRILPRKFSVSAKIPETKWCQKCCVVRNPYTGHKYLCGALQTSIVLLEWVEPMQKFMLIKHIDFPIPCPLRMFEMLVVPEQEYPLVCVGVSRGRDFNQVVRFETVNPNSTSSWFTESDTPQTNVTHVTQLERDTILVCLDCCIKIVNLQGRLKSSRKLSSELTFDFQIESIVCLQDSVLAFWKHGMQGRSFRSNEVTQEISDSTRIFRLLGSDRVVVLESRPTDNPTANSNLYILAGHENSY

The target in another experiment is T4, RIPK1 (Homo sapiens, UniProt Q13546).
T4 construct: purchased KINOMEscan (DiscoveRx), San Diego, CA
T4 sequence (Q13546 whole entry): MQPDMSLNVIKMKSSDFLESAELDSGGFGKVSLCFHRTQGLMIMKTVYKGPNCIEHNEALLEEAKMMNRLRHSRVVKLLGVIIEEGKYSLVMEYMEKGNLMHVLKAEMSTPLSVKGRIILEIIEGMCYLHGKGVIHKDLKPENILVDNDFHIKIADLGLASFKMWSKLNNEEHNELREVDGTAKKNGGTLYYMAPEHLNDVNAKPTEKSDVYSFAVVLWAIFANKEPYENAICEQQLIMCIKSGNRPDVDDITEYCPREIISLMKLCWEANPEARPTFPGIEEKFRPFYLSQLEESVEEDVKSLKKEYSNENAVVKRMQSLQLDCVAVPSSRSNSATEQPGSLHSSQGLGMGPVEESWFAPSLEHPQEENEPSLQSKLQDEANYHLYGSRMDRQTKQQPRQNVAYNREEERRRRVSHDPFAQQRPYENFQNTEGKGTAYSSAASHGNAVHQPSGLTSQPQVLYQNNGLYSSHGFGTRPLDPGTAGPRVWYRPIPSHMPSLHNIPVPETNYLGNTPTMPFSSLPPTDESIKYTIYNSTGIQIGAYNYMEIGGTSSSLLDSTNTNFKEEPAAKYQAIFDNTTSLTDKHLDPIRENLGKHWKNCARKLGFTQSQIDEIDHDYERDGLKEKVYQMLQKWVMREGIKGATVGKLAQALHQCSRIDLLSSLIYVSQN

With `CCCS(=O)(=O)Nc1ccc(F)c(C(=O)c2c[nH]c3ncc(Cl)cc23)c1F` [PLX4720], on ASK2 (MAP3K6), the remaining binding at 0.05 µM is 94%, the remaining binding at 0.2 µM was 100%, the remaining binding at 1 µM amounted to 100% and the remaining binding at 10 µM came out at 100%. For the same compound, at MAP3K2, the remaining binding at 0.05 µM was 100%, the remaining binding at 0.2 µM was 93%, the remaining binding at 1 µM was 87% and the remaining binding at 10 µM is 41%. Also, on MAP4K3, the remaining binding at 0.05 µM came out at 100%, the remaining binding at 0.2 µM amounted to 95%, the remaining binding at 1 µM was found to be 90% and the remaining binding at 10 µM was 56%. Besides, at RIPK1, the remaining binding at 0.05 µM stood at 99%, the remaining binding at 0.2 µM was determined as 87%, the remaining binding at 1 µM worked out at 85% and the remaining binding at 10 µM is 50%.

`CCCS(=O)(=O)Nc1ccc(F)c(C(=O)c2c[nH]c3ncc(-c4ccc(Cl)cc4)cc23)c1F` [vemurafenib]: the remaining binding at 0.05 µM stood at 94% at ASK2 (MAP3K6), 91% on MAP3K2, 80% at MAP4K3 and 92% on RIPK1. For the same compound, the remaining binding at 0.2 µM worked out at 98% on ASK2 (MAP3K6), 91% at MAP3K2, 90% on MAP4K3 and 100% on RIPK1. Besides, the remaining binding at 1 µM on ASK2 (MAP3K6) is 100%; on MAP3K2, 89%; at MAP4K3, 82%; at RIPK1, 99%. For the same compound, the remaining binding at 10 µM on ASK2 (MAP3K6) was 74%; at MAP3K2 it was 83%; at MAP4K3 it was 24%; at RIPK1, 73%.
